Reference: paper PMC7213079, “Hit Identification of New Potent PqsR Antagonists as Inhibitors of Quorum Sensing in Planktonic and Biofilm Grown Pseudomonas aeruginosa” (Frontiers in Chemistry, 2020)
“Also recorded” adds a separate entry of the source.

Columns and labels:
Assay type in all cases: cell-based, Pseudomonas aeruginosa
PAO1-L mCTX::PpqsA-lux = test: PpqsA-lux bioreporter assay, strain PAO1-L; settings: Pseudomonas aeruginosa, PAO1, read-out: IC50 PAO1-L
Procedure: In silico virtual screening was performed on the PqsR ligand binding domain (LBD) crystal structure [PDB: 4JVI; (Ilangovan et al., [2013])] using the University of Nottingham Managed Chemical Compound Collection (MCCC) containing 85,061 compounds. Molecular docking was performed using both the OpenEye docking (OpenEye Scientific Software Inc. (Hawkins et al., [2007]) and Schrödinger Suite for molecular modeling (Friesner et al., [2004]; Halgren et al., [2004]). A cut off value of the docking score function was set to -9.0 and the resulting high scoring compounds were further examined (Friesner et al., [2004]; Halgren et al., [2004]). This gave a library of around 500 diverse molecules that were evaluated using in vitro screening in a P. aeruginosa PAO1-L mCTX::PPqsA-lux reporter assay (Diggle et al., [2011]).
To inform the structural variation of 7, crystal structures with the endogenous ligand [4-hydroxy-2-heptylquinoline (NHQ)] and the inhibitor M64 were used (Ilangovan et al., [2013]; Kitao et al., [2018]). The PqsR LBD is dominated by lipophilic interactions, therefore the current SAR exploration mainly focused on varying the aromatic tail substituents and examining the effect of 8-position substitution. The rationale for these modifications was primarily based on molecular docking studies that provided insights into the mode of binding of 7 and approaches intended to improve potency. The substituent at the para- position of the aromatic ring appeared to be crucial for biological activity due to the vital π-π stacking interaction of this group with Tyr^258. […] These strains emit light upon activation of PqsR by the endogenous production of these signal molecules. […] The results of the SAR in this assay highlight the importance of testing any prospective anti-virulence strategy on multiple genetically distinct P. aeruginosa strains as a means to reduce the chance of failure at both pre-clinical and clinical stages (Freschi et al., [2015]).
(§1) PAO1-L Wild type PAO1, Lausanne subline. B.
PAO1-L mCTX::PpqsA- PAO1-L with chromosomal mini-CTX::PpqsA-lux (Soukarieh lux insertion; TcR et al., 2018) […]
mini-CTX::PpqsA-lux R6K-based mini-CTX suicide plasmid for the (Diggle et chromosomal insertion of a PpqsA-lux al., 2007) transcriptional reporter fusion; TcR
Biosensor reporter assay:
Strains PA14 mCTX::PpqsA-lux and PAO1-L mCTX::PpqsA-lux were constructed using plasmid mini-CTX::PpqsA-lux as previously described (Diggle et al., 2007) and the assay was performed according to published procedures (Fletcher et al., 2007). For screening, the compounds were tested at 10 µM concentration which was prepared from 10 mM stock in DMSO. […]

PAO1-L = test: Pyocyanin quantification, PAO1-L; settings: compound at 3 x IC50, 16 h, compared with the control
Description: (§2) Pyocyanin is an important virulence factor for P. aeruginosa infections and in particular respiratory and urinary tract infections. Pyocyanin is a redox-active phenazine the production of which is regulated via PqsR and PqsE (Hall et al., [2016]; Rampioni et al., [2016]; Higgins et al., [2018]). Therefore, pyocyanin production serves as an indirect readout of the activity of the pqs QS system. […] Compound 40 reduced pyocyanin production by over 80% in both strains in agreement with bioreporter assay results.
(§3) Figure 4 Pyocyanin production by Pseudomonas aeruginosa after treatment with pqs inhibitors 8, 14, 23, 34, 25, 26, and 40. Quantification of pyocyanin production after inhibitor treatment at 3 × IC50 for both PAO1-L and PA14. The graph represents the average of three independent experiments carried out in triplicate (n = 9).
as §1
(§4) PAO1-L mCTX::PpqsA- PAO1-L with chromosomal mini-CTX::PpqsA-lux (Soukarieh lux insertion; TcR et al., 2018)
(§5) PA14 Wild type UCBPP-PA14 (Rahme et
(§6) PA14 mCTX::PpqsA-lux PA14 with chromosomal mini-CTX::PpqsA-lux (Soukarieh insertion; TcR et al., 2018) […]
(§7) Pyocyanin quantification: […]
(§8) Pyocyanin pigment was extracted into chloroform by mixing 7.5 mL of supernatant with 4.5 mL of chloroform. Pyocyanin w as further extracted into 1.5 mL of 0.2 M HCL which gave a pink/red solution and the absorbance was measured at 520 nm.

PA14 = test: Pyocyanin quantification, PA14; settings: PA14, compound at 3 x IC50, 16 h, compared with the control
Description: as §2, §3, §1, §4, §5, §6, §7, §8

PAO1-L biofilms = test: Biofilm viability assay (LIVE/DEAD BacLight, CLSM); settings: 6 and 24 h
Procedure: PAO1-L biofilms were established for 2 days before challenging with these treatments for 6 and 24 h followed by Live/Dead staining.
Figure 7 Bar chart showing PAO1-L biofilm viability quantified after treatment with different conditions for 6 or 24 h.
Mature pre-established P. aeruginosa PAO1-L biofilms were grown to assess the effects of co-
For these assays, PAO1-L biofilms were grown on round glass coverslips (8 mm, #1.5 thickness) under flow conditions (20 rpm) in FAB containing 10
mM glucose medium inoculated with a diluted (OD600nm = 0.01) bacterial suspension from overnight
cultures in LB. Biofilms were cultivated at 30°C for 2 days with medium replacement every day.

## Cn1c2ccccc2c2nnc(SCC(=O)Nc3ccc(Oc4ccccn4)cc3)nc21 [Compound 40, 2-((5-Methyl-5H-[1,2,4]triazino[5,6-b]indol-3-yl)thio)-N-(4-(pyridin-2-yloxy)phenyl)acetamide]
PAO1-L mCTX::PpqsA-lux
  IC50: 250 ± 120 nM
PAO1-L
  inhibition of pyocyanin production: over 80%
PA14
  inhibition of pyocyanin production: over 80%
PAO1-L biofilms; pre-established PAO1-L biofilms (48 h), 40 at 10 μM
  biofilm viability: growth of the community increased; also recorded: slight increase in viability
PAO1-L biofilms; pre-established PAO1-L biofilms, 40 10 μM combined with ciprofloxacin 60 μg/mL
  biofilm killing in combination with CIP: did not result in an enhanced biofilm killing
